In the first data set the target is T1, AMPA receptor (human GluR1 flip/stargazin expressed in CHO-K1 cells) (Homo sapiens, UniProt P42261).
T1 construct: expressed in transfected cells; host or cells: CHO-K1
T1 sequence (P42261 19-906 isoform P42261-2 limits assumed): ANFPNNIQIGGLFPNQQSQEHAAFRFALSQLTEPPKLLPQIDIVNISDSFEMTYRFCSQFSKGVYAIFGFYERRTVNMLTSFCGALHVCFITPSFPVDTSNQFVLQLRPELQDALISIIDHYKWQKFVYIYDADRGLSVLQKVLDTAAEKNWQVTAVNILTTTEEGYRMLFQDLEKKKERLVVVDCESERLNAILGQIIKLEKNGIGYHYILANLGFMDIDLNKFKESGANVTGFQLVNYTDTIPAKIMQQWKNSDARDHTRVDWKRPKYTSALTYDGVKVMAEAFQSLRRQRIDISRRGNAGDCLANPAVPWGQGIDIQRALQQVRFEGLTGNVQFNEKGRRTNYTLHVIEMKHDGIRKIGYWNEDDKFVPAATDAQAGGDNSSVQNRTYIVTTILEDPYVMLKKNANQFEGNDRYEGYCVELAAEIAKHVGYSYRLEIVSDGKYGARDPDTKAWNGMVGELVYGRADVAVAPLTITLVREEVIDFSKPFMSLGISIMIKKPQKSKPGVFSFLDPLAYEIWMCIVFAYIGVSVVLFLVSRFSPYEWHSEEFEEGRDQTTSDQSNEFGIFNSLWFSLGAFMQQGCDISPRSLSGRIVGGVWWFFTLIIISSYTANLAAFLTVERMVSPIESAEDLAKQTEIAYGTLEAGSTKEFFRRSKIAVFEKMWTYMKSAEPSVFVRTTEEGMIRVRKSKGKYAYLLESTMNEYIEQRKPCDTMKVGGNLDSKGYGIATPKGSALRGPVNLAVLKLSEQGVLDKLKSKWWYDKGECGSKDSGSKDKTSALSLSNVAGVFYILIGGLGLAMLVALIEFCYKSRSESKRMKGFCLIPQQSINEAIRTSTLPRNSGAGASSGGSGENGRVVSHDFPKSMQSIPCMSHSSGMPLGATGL
T1 sequence (Q9Y698 whole entry partner): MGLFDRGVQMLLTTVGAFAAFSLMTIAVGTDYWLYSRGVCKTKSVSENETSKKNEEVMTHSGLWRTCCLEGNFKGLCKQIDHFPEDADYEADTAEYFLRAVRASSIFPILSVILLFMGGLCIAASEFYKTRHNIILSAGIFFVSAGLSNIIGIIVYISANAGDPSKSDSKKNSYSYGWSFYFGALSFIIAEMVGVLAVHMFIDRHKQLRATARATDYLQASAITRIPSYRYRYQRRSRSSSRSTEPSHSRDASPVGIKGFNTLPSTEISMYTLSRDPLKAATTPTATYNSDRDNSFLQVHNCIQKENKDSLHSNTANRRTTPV
Briefly: AMPA receptor function enhancing activity using calcium influx as index. Type of data set: cell-based. Particulars: test compound 30 μM with 3 mM glutamic acid, change in fluorescence level in 3 min, 100% = 3 mM glutamic acid + 300 μM cyclothiazide, 0% = 3 mM glutamic acid only. In short, it runs like this: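 CHO-K1 clone stably co-expressing human GluR1 flip and stargazin, loaded with Calcium 4 dye plus probenecid. Compound at 30 μM was added with glutamate (3 mM final) and fluorescence change followed over 3 min. Activity is expressed as % of the 3 mM glutamate plus 300 μM cyclothiazide response, with glutamate alone as 0%.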
Turning to `O=S1(=O)CCN2C=CC=C(c3ccc(Oc4ccc(F)cc4)cc3)C2=N1` [Example 199, 9-[4-(4-fluorophenoxy)phenyl]-3,4-dihydropyrido[2,1-c][1,2,4]thiadiazine 2,2-dioxide], the “activity (%)” value was determined as 79%.
Still for that read-out and setting: under `CC(F)(F)c1ccc(C2CCCN3CCS(=O)(=O)N=C23)cc1` (centres unmarked) [Example 230, 9-[4-(1,1-difluoroethyl)phenyl]-3,4,6,7,8,9-hexahydropyrido[2,1-c][1,2,4]thiadiazine 2,2-dioxide] stands 59%; under `CC(F)(F)c1ccc(Oc2ccc(C3CCCN4CCS(=O)(=O)N=C34)cc2)cc1` (centres unmarked) [Example 235, 9-{4-[4-(1,1-difluoroethyl)phenoxy]phenyl}-3,4,6,7,8,9-hexahydropyrido[2,1-c][1,2,4]thiadiazine 2,2-dioxide], 84%.
Still for that read-out and setting: to `O=S1(=O)CCN2C=CN=C(c3ccc(Oc4ccccc4)cc3)C2=N1` [Example 210, 9-(4-phenoxyphenyl)-3,4-dihydropyrazino[2,1-c][1,2,4]thiadiazine 2,2-dioxide] belongs 82%.

Still in this data set, the particulars now being: test compound 30 μM with glutamic acid final 3 mM, change in fluorescence in 3 min, 100% = 3 mM glutamic acid + 300 μM cyclothiazide, 0% = 3 mM glutamic acid only.
Regarding `O=S1(=O)CCN2C=C(Cl)C=C(c3ccc(Oc4ccccc4)cc3)C2=N1` [Example 81, 7-chloro-9-(4-phenoxyphenyl)-3,4-dihydropyrido[2,1-c][1,2,4]thiadiazine 2,2-dioxide], the “activity (%)” value is recorded as 86%.
Still for that read-out and setting: to `CC(C)c1ccc(C2=CC=CN3CCS(=O)(=O)N=C23)cc1` [Example 23, 9-[4-(1-methylethyl)phenyl]-3,4-dihydropyrido[2,1-c][1,2,4]thiadiazine 2,2-dioxide] belongs 104%.
On the same count and under the same terms, under `O=S1(=O)CCN2CCCC(c3ccc(Oc4ccc(C(F)(F)F)cc4)cc3)C2=N1` (centres unmarked) [Example 125, 9-{4-[4-(trifluoromethyl)phenoxy]phenyl}-3,4,6,7,8,9-hexahydropyrido[2,1-c][1,2,4]thiadiazine 2,2-dioxide] stands 53%; under `Cc1cc(C2=CC=CN3CCS(=O)(=O)N=C23)ccc1-c1ccccc1` [Example 101, 9-(2-methylbiphenyl-4-yl)-3,4-dihydropyrido[2,1-c][1,2,4]thiadiazine 2,2-dioxide], 84%.

System in the next data set: not given
Assay: not given
Conditions: not given
The melting point is the temperature of the solid-liquid transition. Take `O=S1(=O)CCN2C=C(Cl)C=C(c3ccc(Oc4ccccc4)cc3)C2=N1` [Example 81, 7-chloro-9-(4-phenoxyphenyl)-3,4-dihydropyrido[2,1-c][1,2,4]thiadiazine 2,2-dioxide]: the melting point is 248 to 249 °C.
With `O=S1(=O)CCN2C=CC=C(c3ccc(Oc4ccc(F)cc4)cc3)C2=N1` [Example 199, 9-[4-(4-fluorophenoxy)phenyl]-3,4-dihydropyrido[2,1-c][1,2,4]thiadiazine 2,2-dioxide], the melting point was 266 to 267 °C.
With `CCCOc1ccc(C2CCCN3CCS(=O)(=O)N=C23)cc1` (centres unmarked) [Example 190, 9-(4-propoxyphenyl)-3,4,6,7,8,9-hexahydropyrido[2,1-c][1,2,4]thiadiazine 2,2-dioxide], the melting point lay within 169 to 170 °C.
Same read-out and setting: to `CCc1ccc(Oc2ccc([C@H]3CCCN4CCS(=O)(=O)N=C34)cc2)cc1` [Example 217, (9R)-9-[4-(4-ethylphenoxy)phenyl]-3,4,6,7,8,9-hexahydropyrido[2,1-c][1,2,4]thiadiazine 2,2-dioxide] belongs 152 to 153 °C.
Still for that read-out and setting: under `O=S1(=O)CCN2C=CC=C(c3ccc(OC4CCCC4)cc3)C2=N1` [Example 66, 9-[4-(cyclopentyloxy)phenyl]-3,4-dihydropyrido[2,1-c][1,2,4]thiadiazine 2,2-dioxide] stands 254 to 256 °C.
`CC(C)c1ccc(C2=CC=CN3CCS(=O)(=O)N=C23)cc1` [Example 23, 9-[4-(1-methylethyl)phenyl]-3,4-dihydropyrido[2,1-c][1,2,4]thiadiazine 2,2-dioxide] yielded a melting point of 239 to 241 °C.
Still for that read-out and setting: under `O=S1(=O)CCN2CCCC(c3ccc(Oc4ccc(C(F)(F)F)cc4)cc3)C2=N1` (centres unmarked) [Example 125, 9-{4-[4-(trifluoromethyl)phenoxy]phenyl}-3,4,6,7,8,9-hexahydropyrido[2,1-c][1,2,4]thiadiazine 2,2-dioxide] stands 191 to 193 °C; under `Cc1ccc(Oc2ccc(C3=CC=CN4CCS(=O)(=O)N=C34)cc2)cc1` [Example 168, 9-[4-(4-methylphenoxy)phenyl]-3,4-dihydropyrido[2,1-c][1,2,4]thiadiazine 2,2-dioxide], 248 to 250 °C.
On the same count and under the same terms, to `O=S1(=O)CCN2C=CC=C(c3ccc(Oc4ccc(C(F)(F)F)cc4)cc3)C2=N1` [Example 200, 9-{4-[4-(trifluoromethyl)phenoxy]phenyl}-3,4-dihydropyrido[2,1-c][1,2,4]thiadiazine 2,2-dioxide] belongs 253 to 255 °C; to `O=S1(=O)CCN2C=CC=C(c3ccc(-c4ccccc4)s3)C2=N1` [Example 50, 9-(5-phenylthiophen-2-yl)-3,4-dihydropyrido[2,1-c][1,2,4]thiadiazine 2,2-dioxide], 241 to 242 °C; to `O=S1(=O)CCN2CCN[C@@H](c3ccc(Oc4ccccc4)cc3)C2=N1` [Example 212, (9S)-(4-phenoxyphenyl)-3,4,6,7,8,9-hexahydropyrazino[2,1-c][1,2,4]thiadiazine 2,2-dioxide], 124 to 125 °C.
In turn, `O=S1(=O)CCN2CCCC(c3ccc(Oc4ccc(C(F)(F)F)cc4)cc3)C2=N1` (centres unmarked) [Example 233, 9-{4-[4-(trifluoromethyl)phenoxy]phenyl}-3,4,6,7,8,9-hexahydropyrido[2,1-c][1,2,4]thiadiazine 2,2-dioxide] displayed a melting point of 177 to 179 °C.
On the same count and under the same terms, under `O=S1(=O)CCN2C=CC=C(c3ccc(OC4CCCCC4)cc3)C2=N1` [Example 165, 9-[4-(cyclohexyloxy)phenyl]-3,4-dihydropyrido[2,1-c][1,2,4]thiadiazine 2,2-dioxide] stands 275 to 277 °C; under `CC(C)c1ccc(C2CCCN3CCS(=O)(=O)N=C23)cc1` (centres unmarked) [Example 42, 9-[4-(1-methylethyl)phenyl]-3,4,6,7,8,9-hexahydropyrido[2,1-c][1,2,4]thiadiazine 2,2-dioxide], 198 to 203 °C; under `CCCCOc1ccc(C2=CC=CN3CCS(=O)(=O)N=C23)cc1` [Example 209, 9-(4-butoxyphenyl)-3,4-dihydropyrido[2,1-c][1,2,4]thiadiazine 2,2-dioxide], 230 to 232 °C.
Still for that read-out and setting: to `O=S1(=O)CCN2CCCC(c3ccc(Oc4ccc(Cl)cc4)cc3)C2=N1` (centres unmarked) [Example 150, 9-[4-(4-chlorophenoxy)phenyl]-3,4,6,7,8,9-hexahydropyrido[2,1-c][1,2,4]thiadiazine 2,2-dioxide] belongs 183 to 185 °C; to `O=S1(=O)CCN2CCC[C@H](c3ccc(Oc4ccccc4)cc3)C2=N1` [Example 62, (9R)-9-(4-phenoxyphenyl)-3,4,6,7,8,9-hexahydropyrido[2,1-c][1,2,4]thiadiazine 2,2-dioxide], 171 to 176 °C; to `CC(C)Oc1ccc(C2CCCN3CCS(=O)(=O)N=C23)cc1` (centres unmarked) [Example 40, 9-[4-(1-methylethoxy)phenyl]-3,4,6,7,8,9-hexahydropyrido[2,1-c][1,2,4]thiadiazine 2,2-dioxide], 191 to 192 °C.
On the same count and under the same terms, under `CC(F)(F)c1ccc(Oc2ccc(C3CCCN4CCS(=O)(=O)N=C34)cc2)cc1` (centres unmarked) [Example 170, 9-{4-[4-(1,1-difluoroethyl)phenoxy]phenyl}-3,4,6,7,8,9-hexahydropyrido[2,1-c][1,2,4]thiadiazine 2,2-dioxide] stands 171 to 172 °C; under `O=S1(=O)CCN2CCCC(c3ccc(OC(F)(F)F)cc3)C2=N1` (centres unmarked) [Example 41, 9-[4-(trifluoromethoxy)phenyl]-3,4,6,7,8,9-hexahydropyrido[2,1-c][1,2,4]thiadiazine 2,2-dioxide], 207 to 208 °C.
With `CC(C)(C)c1ccc(C2CCCN3CCS(=O)(=O)N=C23)cc1` (centres unmarked) [Example 38, 9-(4-tert-butylphenyl)-3,4,6,7,8,9-hexahydropyrido[2,1-c][1,2,4]thiadiazine 2,2-dioxide], the melting point was 232 to 236 °C.
The same measure, in the same setting: to `CCC(C)c1ccc(C2=CC=CN3CCS(=O)(=O)N=C23)cc1` (centres unmarked) [Example 32, 9-[4-(1-methylpropyl)phenyl]-3,4-dihydropyrido[2,1-c][1,2,4]thiadiazine 2,2-dioxide] belongs 237 to 239 °C; to `O=S1(=O)CCN2CCN[C@H](c3ccc(Oc4ccccc4)cc3)C2=N1` [Example 213, (9R)-9-(4-phenoxyphenyl)-3,4,6,7,8,9-hexahydropyrazino[2,1-c][1,2,4]thiadiazine 2,2-dioxide], 124 to 125 °C.
On to `O=S1(=O)CCN2CCC[C@@H](c3ccc(Oc4ccc(F)c(Cl)c4)cc3)C2=N1` [Example 457, (9S)-9-[4-(3-chloro-4-fluorophenoxy)phenyl]-3,4,6,7,8,9-hexahydropyrido[2,1-c][1,2,4]thiadiazine 2,2-dioxide], for which the melting point is 154 to 156 °C.
Molecule `O=S1(=O)CCN2C=CC=C(c3ccc(Oc4ccccc4)cc3)C2=N1` [Example 166, 9-(4-phenoxyphenyl)-3,4-dihydropyrido[2,1-c][1,2,4]thiadiazine 2,2-dioxide] displayed a melting point of 251 to 252 °C.
The same measure, in the same setting: under `CC(C)Oc1ccc(C2=CC=CN3CCS(=O)(=O)N=C23)cc1` [Example 33, 9-[4-(1-methylethoxy)phenyl]-3,4-dihydropyrido[2,1-c][1,2,4]thiadiazine 2,2-dioxide] stands 245 to 247 °C.
On the same count and under the same terms, under `CC(C)(C)c1ccc(C2=CC=CN3CCS(=O)(=O)N=C23)cc1` [Example 35, 9-(4-tert-butylphenyl)-3,4-dihydropyrido[2,1-c][1,2,4]thiadiazine 2,2-dioxide] stands 291 to 292 °C; under `O=S1(=O)CCN2C=CC=C(c3ccc(Oc4ccccc4)cc3)C2=N1` [Example 167, 9-(4-phenoxyphenyl)-3,4-dihydropyrido[2,1-c][1,2,4]thiadiazine 2,2-dioxide], 253 to 255 °C; under `O=S1(=O)CCN2C=CC=C(c3ccc(OCC4CCCC4)cc3)C2=N1` [Example 74, 9-[4-(cyclopentylmethoxy)phenyl]-3,4-dihydropyrido[2,1-c][1,2,4]thiadiazine 2,2-dioxide], 258 to 259 °C.
The same measure, in the same setting: under `O=S1(=O)CCN2C=C(Cl)C=C(c3ccc(Oc4cc(C(F)(F)F)ccn4)cc3)C2=N1` [Example 76, 7-chloro-9-(4-{[4-(trifluoromethyl)pyridin-2-yl]oxy}phenyl)-3,4-dihydropyrido[2,1-c][1,2,4]thiadiazine 2,2-dioxide] stands 238 to 239 °C.
